Values quoted from earlier work, collected in US7511157B2, “Hepatitis C inhibitor dipeptide analogs” (Boehringer Ingelheim International GmbH, priority 2004, dated 2009).

Tested on: hepatitis C virus
Details: two day clinical trial; Gastroenterology (2004) 127(5): 1347-1355

## COc1ccc2c(O[C@@H]3C[C@H]4C(=O)N[C@]5(C(=O)O)C[C@H]5/C=C\CCCCC[C@H](NC(=O)OC5CCCC5)C(=O)N4C3)cc(-c3csc(NC(C)C)n3)nc2c1 [BILN 2061]
  reduction of viral loads in patients: effective in rapidly reducing viral loads
